Calls of active or inactive are those of the source. The rule behind the calls is not given here.
How the values were obtained:
RAW264.7 = assay: Inhibition of LPS-induced NO production in mouse RAW264.7 cells after 24 hrs by Griess assay; type: functional, cell-based; conditions: RAW264.7, 24 h
HeLa = assay: Cytotoxicity against human HeLa cells assessed as reduction in cell viability up to 100 uM after 72 hrs by CCK-8 assay; type: functional, cell-based
HT-29 [1] = assay: Cytotoxicity against human HT-29 cells assessed as reduction in cell viability up to 100 uM after 72 hrs by CCK-8 assay; type: functional, cell-based
Influenza A virus [2] = assay: Antiviral activity against influenza A virus H3N2 assessed as inhibition of virus-induced cytopathic effect up to 100 uM after 48 hrs by crystal violet staining based assay; type: functional, organism-based
A549 = assay: Cytotoxicity against human A549 cells assessed as reduction in cell viability up to 100 uM after 72 hrs by CCK-8 assay; type: functional, cell-based
HL-60 = assay: Cytotoxicity against human HL60 cells assessed as reduction in cell viability up to 100 uM after 72 hrs by CCK-8 assay; type: functional, cell-based
K562 = assay: Cytotoxicity against human K562 cells assessed as reduction in cell viability up to 100 uM after 72 hrs by CCK-8 assay; type: functional, cell-based
Influenza A virus [3] = assay: Antiviral activity against influenza A virus H1N1 assessed as inhibition of virus-induced cytopathic effect up to 100 uM after 48 hrs by crystal violet staining based assay; type: functional, organism-based
MCF7 = assay: Cytotoxicity against human MCF7 cells assessed as reduction in cell viability up to 100 uM after 72 hrs by CCK-8 assay; type: functional, cell-based
U-937 [4] = assay: Cytotoxicity against human U937 cells assessed as reduction in cell viability up to 100 uM after 72 hrs by CCK-8 assay; type: functional, cell-based
DU-145 = assay: Cytotoxicity against human DU145 cells assessed as reduction in cell viability up to 100 uM after 72 hrs by CCK-8 assay; type: functional, cell-based
U-937 [5] = assay: Cytotoxicity against human U937 cells assessed as reduction in cell viability after 72 hrs by CCK-8 assay; type: functional, cell-based; conditions: U-937, 72 h
HT-29 [6] = assay: Cytotoxicity against human HT-29 cells assessed as reduction in cell viability after 72 hrs by CCK-8 assay; type: functional, cell-based; conditions: HT-29, 72 h

| Compound | IC50 (RAW264.7) | Activity (HeLa) | Activity (HT-29 [1]) | inhibition (Influenza A virus [2]) | Activity (A549) | Activity (HL-60) | Activity (K562) | inhibition (Influenza A virus [3]) | Activity (MCF7) | Activity (U-937 [4]) | Activity (DU-145) | IC50 (U-937 [5]) | IC50 (HT-29 [6]) |
| --- | --- | --- | --- | --- | --- | --- | --- | --- | --- | --- | --- | --- | --- |
| C[C@@H]1C[C@H]2[C@@H]3CCC4=CC(=O)C=C[C@]4(C)[C@@]3(F)[C@@H](O)C[C@]2(C)[C@@]1(O)C(=O)CO [DEXAMETHASONE] | 2500 nM |  |  |  |  |  |  |  |  |  |  |  |  |
| CC1=CC([C@@H](CCC(=O)O)C(=O)O)=C(C)CC[C@@H]1C | 18300 nM | inactive | inactive | inactive | inactive | inactive | inactive | inactive | inactive | inactive | inactive |  |  |
| C[C@H]1CC[C@]2(C)C(=CCC[C@H]2O)C=C1C(=O)O |  | inactive | inactive | inactive | inactive | inactive | inactive | inactive | inactive | inactive | inactive |  |  |
| COC(OC)C1=CC2=CC(=O)C=C[C@]2(C)CC[C@@H]1C |  | inactive | inactive | inactive | inactive | inactive | inactive | inactive | inactive | inactive | inactive |  |  |
| C[C@H]1CC[C@]2(C)C(=CCC[C@H]2O)C=C1CO |  | inactive | inactive | inactive | inactive | inactive | inactive | inactive | inactive | inactive | inactive |  |  |
| C[C@H]1CC[C@@]2(C)C=CC(=O)C=C2C=C1C(=O)O |  | inactive | inactive | inactive | inactive | inactive | inactive | inactive | inactive | inactive | inactive |  |  |
| C[C@H]1CC[C@@]2(C)C=CC(=O)C=C2C=C1CO |  | inactive | inactive | inactive | inactive | inactive | inactive | inactive | inactive | inactive | inactive |  |  |
| CC1=CC([C@@H](CCCO)C(=O)O)=C(C)CC[C@@H]1C | 14600 nM | inactive | inactive | inactive | inactive | inactive | inactive | inactive | inactive | inactive | inactive |  |  |
| C[C@H]1CC[C@@]2(C)C=CC(=O)C=C2C=C1C=O |  | inactive | inactive | inactive | inactive | inactive | inactive | inactive | inactive | inactive | inactive |  |  |
| CC(=O)O[C@H]1C(=O)[C@@]2(C)[C@H]([C@H](OC(=O)c3ccccc3)[C@]3(O)C[C@H](OC(=O)[C@H](O)[C@@H](NC(=O)c4ccccc4)c4ccccc4)C(C)=C1C3(C)C)[C@]1(OC(C)=O)CO[C@@H]1C[C@@H]2O [PACLITAXEL] |  |  |  |  |  |  |  |  |  |  |  | 1.7 nM | 3 nM |
| CC1=CC[C@@]2(C)[C@H](O)CC[C@@H](C(=O)O)[C@@H]2C=C1C |  | inactive | inactive | inactive | inactive | inactive | inactive | inactive | inactive | inactive | inactive |  |  |

Reference: ChEMBL document CHEMBL4190215, “Ochracenes A-I, Humulane-Derived Sesquiterpenoids from the Antarctic Fungus Aspergillus ochraceopetaliformis” (J Nat Prod, 2017)
